Measured values taken from PMC10837130, “ATP-dependent conformational dynamics in a photoactivated adenylate cyclase revealed by fluorescence spectroscopy and small-angle X-ray scattering” (Communications Biology, 2024).

Experiments:
Assay type in all cases: binding
[1] = biological target: T1, OaPAC (photoactivated adenylate cyclase) (Oxynema acuminatum, UniProt K9TLZ5); test: ITC (also nanoDSF, SAXS titration, CD); design: gene Oscil6304_3613; Full-length OaPAC (366 aa, homodimer), dark-adapted state
T1 sequence (K9TLZ5 1-366): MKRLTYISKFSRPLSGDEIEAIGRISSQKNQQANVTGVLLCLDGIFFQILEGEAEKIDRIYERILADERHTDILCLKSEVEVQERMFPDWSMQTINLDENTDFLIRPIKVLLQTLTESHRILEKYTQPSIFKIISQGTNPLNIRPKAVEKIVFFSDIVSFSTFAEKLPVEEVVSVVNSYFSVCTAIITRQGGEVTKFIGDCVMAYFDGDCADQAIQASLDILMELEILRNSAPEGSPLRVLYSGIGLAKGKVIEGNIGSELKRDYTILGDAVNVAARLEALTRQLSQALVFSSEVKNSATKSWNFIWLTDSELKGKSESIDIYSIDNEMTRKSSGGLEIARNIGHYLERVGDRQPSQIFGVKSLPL

[2] = biological target: T1, OaPAC (photoactivated adenylate cyclase); test: steady-state fluorescence anisotropy; stopped-flow fluorescence (KD […]); design: gene Oscil6304_3613; Full-length OaPAC (366 aa, homodimer)
[3] = biological target: T1, OaPAC (photoactivated adenylate cyclase); test: ITC (also nanoDSF, DSC, flavin-emission thermal shift, SAXS); design: gene Oscil6304_3613; Full-length OaPAC (366 aa, homodimer), dark-adapted state

Nc1ncnc2c1ncn2[C@@H]1O[C@H](COP(=O)(O)OP(=O)(O)OP(=O)(O)O)[C@@H](O)[C@H]1O [ATP]
Kd [1]: 3.24 ± 1.9 µM

CNc1ccccc1C(=O)O[C@H]1[C@@H](O)[C@H](n2cnc3c(N)ncnc32)O[C@@H]1CO[P@@](=O)(O)O[P@](=O)(O)OP(=O)(O)O [mantATP]
Kd [2]: 2.25 ± 0.4 µM

Nc1ncnc2c1ncn2[C@@H]1O[C@H](COP(=O)(O)CP(=O)(O)OP(=O)(O)O)[C@@H](O)[C@H]1O [ApCpp, Adenosine-5’-[(α,β)-methyleno]triphosphate]
Kd [3]: 5.92 ± 5.06 µM
